In ChEMBL document CHEMBL1149722, “Alkaloids from Psychotria oleoides with activity on growth hormone release” (J Nat Prod, 1992) one finds Activity data, which are given here for 1 compound.

Each structure is given as a SMILES string. Calls of active or inactive are those of the source. No cut-off for these calls is given here.

The species entered for this experiment is Rattus norvegicus. In words: Antagonist activity at SRIF in rat pituitary culture assessed as effect on growth hormone secretion. Type of experiment: functional.

Consider `CN1CC[C@]2(c3cccc4c3C[C@H]3N(C)CC[C@@]45[C@@H]4Nc6c([C@]78CCN(C)[C@H]7Nc7ccccc78)cccc6[C@]35CCN4C)c3ccccc3N[C@H]12`, for which the result was Active.
